≈ marks a conversion by molar mass, not a printed value.
Key:
[1] = Effective permeability of compound at pH 7.4 by PAMPA; assay type: ADME; conditions: read-out: Peff
[2] = Antiproliferative activity against human MDA-MB-231-luc-D3H2LN cells assessed as inhibition of growth after 3 days by CellTiter Glo assay; assay type: functional; conditions: 72 h
[3] = Lipophilicity, logP of compound; assay type: physicochemical; conditions: octanol/water
[4] = Dissociation constant, acidic pKa of compound; assay type: physicochemical
[5] = Lipophilicity, logD of compound; assay type: physicochemical; conditions: octanol/water
[6] = Antitumor activity against human MDA-MB-231-Luc cells xenografted in BALB/cAJcl nu/nu mouse assessed as tumour growth inhibition at 300 mg/kg, po administered bid for 11 days and measured every 2 to 3 days relative to control; assay type: functional; conditions: read-out: TGI
[7] = Free plasma concentration in BALBc mouse at 10 to 300 mg/kg, po measured after 24 hrs by LC-MS/MS analysis; assay type: ADME, organism-based; conditions: in vivo
[8] = Metabolic stability in mouse liver microsomes assessed as remaining parent compound at 1 uM after 0.5 hrs; assay type: ADME, Microsome; conditions: read-out: Stability
[9] = Solubility of compound in pH 6.8; assay type: physicochemical; conditions: buffer
[10] = Half life in BALBc mouse at 300 mg/kg, po measured for 24 hrs by LC-MS/MS analysis; assay type: ADME, organism-based; conditions: in vivo
[11] = Cmax in BALBc mouse at 30 mg/kg, po measured for 24 hrs by LC-MS/MS analysis; assay type: ADME, organism-based; parameters: dose 30 mg/kg, route oral; conditions: in vivo
[12] = AUC in BALBc mouse at 10 mg/kg, po measured for 24 hrs by LC-MS/MS analysis; assay type: ADME, organism-based; conditions: in vivo
[13] = Cmax in BALBc mouse at 10 mg/kg, po measured for 24 hrs by LC-MS/MS analysis; assay type: ADME, organism-based; parameters: dose 10 mg/kg, route oral; conditions: in vivo
[14] = Half life in BALBc mouse at 100 mg/kg, po measured for 24 hrs by LC-MS/MS analysis; assay type: ADME, organism-based; conditions: in vivo
[15] = Half life in BALBc mouse at 30 mg/kg, po measured for 24 hrs by LC-MS/MS analysis; assay type: ADME, organism-based; conditions: in vivo
[16] = AUC in BALBc mouse at 30 mg/kg, po measured for 24 hrs by LC-MS/MS analysis; assay type: ADME, organism-based; conditions: in vivo
[17] = Toxicity in BALB/cAJcl nu/nu mouse xenografted with human MDA-MB-231-Luc cells assessed as body weight loss at 300 mg/kg, po administered bid for 11 days and measured every 1 to 2 days; assay type: organism-based; conditions: in vivo
[18] = AUC in BALBc mouse at 100 mg/kg, po measured for 24 hrs by LC-MS/MS analysis; assay type: ADME, organism-based; conditions: in vivo
[19] = Fraction unbound in mouse plasma; assay type: ADME, cell-free
[20] = Half life in BALBc mouse at 10 mg/kg, po measured for 24 hrs by LC-MS/MS analysis; assay type: ADME, organism-based; conditions: in vivo
[21] = Effective permeability of compound at pH 5 by PAMPA; assay type: ADME; conditions: read-out: Peff
[22] = Solubility of compound in pH 1.2; assay type: physicochemical; conditions: buffer
[23] = Cmax in BALBc mouse at 300 mg/kg, po measured for 24 hrs by LC-MS/MS analysis; assay type: ADME, organism-based; parameters: dose 300 mg/kg, route oral; conditions: in vivo
[24] = AUC in BALBc mouse at 300 mg/kg, po measured for 24 hrs by LC-MS/MS analysis; assay type: ADME, organism-based; conditions: in vivo
[25] = Cmax in BALBc mouse at 100 mg/kg, po measured for 24 hrs by LC-MS/MS analysis; assay type: ADME, organism-based; parameters: dose 100 mg/kg, route oral; conditions: in vivo
[26] = target: T1, C-1-tetrahydrofolate synthase, cytoplasmic (Homo sapiens, UniProt P11586)
T1 sequence (P11586 whole entry): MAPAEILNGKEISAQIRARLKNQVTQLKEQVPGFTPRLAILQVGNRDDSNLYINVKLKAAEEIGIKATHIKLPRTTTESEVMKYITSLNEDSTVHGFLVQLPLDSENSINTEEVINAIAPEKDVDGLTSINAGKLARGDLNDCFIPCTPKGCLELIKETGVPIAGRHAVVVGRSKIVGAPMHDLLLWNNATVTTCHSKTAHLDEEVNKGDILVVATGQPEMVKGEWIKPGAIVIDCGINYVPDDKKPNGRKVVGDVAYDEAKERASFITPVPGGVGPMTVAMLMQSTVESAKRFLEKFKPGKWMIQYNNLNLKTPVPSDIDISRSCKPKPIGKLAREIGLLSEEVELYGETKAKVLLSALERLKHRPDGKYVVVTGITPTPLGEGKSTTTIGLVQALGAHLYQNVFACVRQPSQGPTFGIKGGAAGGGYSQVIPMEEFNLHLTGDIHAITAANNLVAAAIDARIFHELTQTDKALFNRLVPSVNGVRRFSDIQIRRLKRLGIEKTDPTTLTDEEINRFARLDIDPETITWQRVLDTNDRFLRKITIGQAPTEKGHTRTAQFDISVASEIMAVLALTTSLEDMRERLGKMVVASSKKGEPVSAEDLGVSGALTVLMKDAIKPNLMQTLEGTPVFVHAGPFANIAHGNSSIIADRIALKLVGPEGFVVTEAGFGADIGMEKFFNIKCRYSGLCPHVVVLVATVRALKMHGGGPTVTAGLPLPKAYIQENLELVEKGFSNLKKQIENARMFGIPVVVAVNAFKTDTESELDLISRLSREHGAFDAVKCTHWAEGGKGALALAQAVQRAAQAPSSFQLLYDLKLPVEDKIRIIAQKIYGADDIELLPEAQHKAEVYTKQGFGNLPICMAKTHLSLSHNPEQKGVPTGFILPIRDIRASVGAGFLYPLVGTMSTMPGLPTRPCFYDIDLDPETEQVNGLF
Description: Inhibition of recombinant MTHFD1 (unknown origin) using THF as substrate incubated for 30 mins in presence of NAD

[27] = target: T2, Bifunctional methylenetetrahydrofolate dehydrogenase/cyclohydrolase, mitochondrial (Homo sapiens, UniProt P13995); test: Inhibition of recombinant MTHFD2 (unknown origin) using THF as substrate incubated for 30 mins in presence of NAD
T2 sequence (P13995 whole entry): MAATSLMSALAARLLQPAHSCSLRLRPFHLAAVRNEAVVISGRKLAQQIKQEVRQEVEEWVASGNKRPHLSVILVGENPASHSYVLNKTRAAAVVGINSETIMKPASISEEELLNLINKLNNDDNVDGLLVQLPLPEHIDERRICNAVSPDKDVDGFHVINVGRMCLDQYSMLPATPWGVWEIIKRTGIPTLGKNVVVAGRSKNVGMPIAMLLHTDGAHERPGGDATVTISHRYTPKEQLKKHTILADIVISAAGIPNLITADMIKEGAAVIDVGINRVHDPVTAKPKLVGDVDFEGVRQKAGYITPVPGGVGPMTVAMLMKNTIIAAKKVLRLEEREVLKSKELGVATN

[28] = Toxicity in BALB/cAJcl nu/nu mouse xenografted with human MDA-MB-231-Luc cells assessed as body weight loss at 30 to 300 mg/kg, po administered bid for 11 days and measured every 1 to 2 days; assay type: organism-based; conditions: in vivo

Description for Homo sapiens: Antitumor activity against human MDA-MB-231-Luc cells xenografted in orally dosed BALB/cAJcl nu/nu mouse assessed as tumour growth inhibition administered bid for 11 days and measured every 2 to 3 days relative to control

Cc1c(N2CCN(C)CC2)ccc2c3c(c(=O)oc12)CN(C(=O)c1ccc(NS(C)(=O)=O)c(OC(F)(F)F)c1)CC3
Papp [1]: 43.7 ×10⁻⁶ cm/s | GI50 [2]: 380 nM | logP [3]: 1.9 | pKa [4]: 6.8

Cc1c(N2CCN(C)CC2)ccc2c3c(c(=O)oc12)CN(C(=O)c1ccc(NS(C)(=O)=O)c(Cl)c1)CC3
logD [5]: 1.3 | inhibition in vivo at 300 mg/kg [6]: 43% | Papp [1]: 31.1 ×10⁻⁶ cm/s | Cp(f) [7]: 0 ng/mL | remaining at 0.5 h, 1 µM [8]: 91% | solubility [9]: 120 µg/mL (≈ 220 µM) | GI50 [2]: 940 nM | half-life [10]: 2.32 h | Cmax [11]: 12700 ng/mL | AUC at 24 h [12]: 25.3 µg·h/mL | Cmax [13]: 3660 ng/mL | half-life [14]: 3.51 h | half-life [15]: 3.35 h | AUC at 24 h [16]: 79.2 µg·h/mL | Activity [17]: Non-Toxic | logP [3]: 1.8 | AUC at 24 h [18]: 306 µg·h/mL | fraction unbound [19]: 0.153 | half-life [20]: 2.73 h | Papp [21]: 7.2 ×10⁻⁶ cm/s | solubility [22]: 240 µg/mL (≈ 440 µM) | Cmax [23]: 82600 ng/mL | AUC at 24 h [24]: 929 µg·h/mL | pKa [4]: 6.8 | Cmax [25]: 37900 ng/mL

Cc1c(N2CCN(C)CC2)ccc2c3c(c(=O)oc12)CN(C(=O)c1ccc(NS(C)(=O)=O)c(F)c1)CC3
Papp [1]: 16.9 ×10⁻⁶ cm/s | GI50 [2]: 2000 nM | logP [3]: 1.7 | IC50 [26]: 8000 nM | IC50 [27]: 38 nM | pKa [4]: 6.9

CN(C)Cc1ccc(-c2ccc3c4c(c(=O)oc3c2)CN(C(=O)c2ccc(C(=O)O)cc2)CC4)cc1
IC50 [26]: 23000 nM | IC50 [27]: 340 nM

Cc1c(N2CCN(C)[C@@H](C)C2)ccc2c3c(c(=O)oc12)CN(C(=O)c1ccc(NS(C)(=O)=O)c(Cl)c1)CC3
logD [5]: 1.6 | GI50 [2]: 200 nM | logP [3]: 2

Cc1cc2c3c(c(=O)oc2cc1OCCN(C)C)CN(C(=O)c1ccc(C(=O)O)cc1)CC3
IC50 [26]: > 30000 nM | IC50 [27]: > 30000 nM

Cc1c(N2CCN(C)[C@@H](C)C2)ccc2c3c(c(=O)oc12)CN(C(=O)c1ccc(NS(C)(=O)=O)c(OC(F)(F)F)c1)CC3
logD [5]: 1.9 | inhibition in vivo at 300 mg/kg [6]: 67% | Papp [1]: > 50 ×10⁻⁶ cm/s | Cp(f) [7]: 0 ng/mL | remaining at 0.5 h, 1 µM [8]: 66% | solubility [9]: 630 µg/mL (≈ 1040 µM) | GI50 [2]: 340 nM | half-life [10]: 4 h | Cmax [11]: 56500 ng/mL | AUC at 24 h [12]: 64.4 µg·h/mL | Cmax [13]: 11400 ng/mL | half-life [14]: 2.32 h | half-life [15]: 2.16 h | AUC at 24 h [16]: 264 µg·h/mL | logP [3]: 2.1 | AUC at 24 h [18]: 726 µg·h/mL | fraction unbound [19]: 0.031 | Activity [28]: Non-Toxic | half-life [20]: 2.21 h | TGI (Homo sapiens): Dose-dependent effect | Papp [21]: 17.2 ×10⁻⁶ cm/s | solubility [22]: 1100 µg/mL (≈ 1810 µM) | Cmax [23]: 143000 ng/mL | AUC at 24 h [24]: 1630 µg·h/mL | Cmax [25]: 90100 ng/mL

CN(C)c1ccc(-c2ccc3c4c(c(=O)oc3c2)CN(C(=O)c2ccc(C(=O)O)cc2)CC4)cc1
IC50 [26]: 5400 nM | IC50 [27]: 3800 nM

Cc1c(OCCN(C)C)ccc2c3c(c(=O)oc12)CN(C(=O)c1ccc2c(c1)CS(=O)(=O)N2)CC3
IC50 [26]: 8400 nM | IC50 [27]: 53 nM

Cc1c(N2CCN(C)CC2)ccc2c3c(c(=O)oc12)CN(C(=O)c1cc(Cl)cc(NS(C)(=O)=O)c1)CC3
Papp [1]: 6.6 ×10⁻⁶ cm/s | GI50 [2]: 5500 nM | logP [3]: 1.8 | IC50 [26]: > 30000 nM | IC50 [27]: 89 nM

Cc1c(N2CCN(C)CC2)ccc2c3c(c(=O)oc12)CN(C(=O)c1ccc(NS(C)(=O)=O)c(Br)c1)CC3
Papp [1]: > 50 ×10⁻⁶ cm/s | GI50 [2]: 1600 nM | logP [3]: 1.9 | IC50 [26]: 4200 nM | IC50 [27]: 33 nM | pKa [4]: 6.8

CN(C)CCCOc1ccc2c3c(c(=O)oc2c1)CN(C(=O)c1ccc(C(=O)O)cc1)CC3
IC50 [26]: 18700 nM | IC50 [27]: 360 nM

From ChEMBL document CHEMBL4334513, “Discovery of a Potent, Selective, and Orally Available MTHFD2 Inhibitor (DS18561882) with in Vivo Antitumor Activity” (J Med Chem, 2019)
